Test results published in patent US10428070B2, “Hepatitis B antiviral agents” (Enanta Pharmaceuticals, Inc., priority 2017, dated 2019).

system: HBV; experiment: HepAD38 antiviral assay: reduction of viral product accumulation (virion DNA by qPCR, HBsAg or HBeAg by ELISA); assay type: cell-based, hepatitis B virus; conditions: HepAD38 cells; harvest five days after compound addition; 50% reduction of viral product accumulation relative to no drug controls
Description: Methods: HepAD38 cells are maintained as previously reported (Ladner et al, Antimicrob. Agents Chemother. 1997, […], 1715). Briefly, cells are passaged upon attaining confluency in DMEM/F12 media in the presence of 10% FBS, Penn/Strep, 250 μg/mL G418, and 1 μg/ml tetracycline. Novel compounds are screened by first washing cells three times with PBS to remove tetracycline, and plating in 96 well plates at 35,000 cells/well. Compounds dissolved in DMSO are then diluted 1:200 into wells containing cells. Five days after compound addition, material is harvested for analysis. For an extended 8 day analysis, cells are plated and treated as described above, but media and compound are refreshed on d2 and d5 post initial treatment.
On harvest day, virion DNA is obtained by lysing with Sidestep Lysis and Stabilization Buffer and then quantified via quantitative real time PCR. Commercially available ELISA kits are used to quantitate the viral proteins HBsAg (Alpco) or HbeAg (US Biological) by following the manufacturer's recommended protocol after diluting samples to match the linear range of their respective assays.

Compound O=C(O)CCN1C(=O)OC[C@@]12CC1=C(c3ccn(C(F)F)n3)[C@H](c3ccc(F)cc3Cl)N=C(c3nccs3)N1C2 [Example 22] has an EC50 greater than 400 nM.
O=C(O)CCN1C(=O)OC[C@@]12CC1=C(c3ccn(C(F)F)n3)[C@H](c3ccc(F)cc3Cl)N=C(c3nccs3)N1C2 [Example 30] gave an EC50 of less than 100 nM.

same assay, conditions: Hepatitis B virus, HePAD38, 120 h, HepAD38 cells; harvest five days after compound addition; 50% reduction of viral product accumulation relative to no drug controls

CCOC(=O)C1=C2C[C@]3(CNS(=O)(=O)N3)CN2C(c2nccs2)=N[C@H]1c1ccc(F)cc1Cl (relative stereo) [Example 16] and CCOC(=O)C1=C2C[C@@]3(CNS(=O)(=O)N3)CN2C(c2nccs2)=N[C@H]1c1ccc(F)cc1Cl (relative stereo) [Example 15] cannot be ordered by EC50: less than 100 nM for the first, less than 100 nM for the second.

First: C=CC1OC(=O)N[C@]12CC1=C(c3ccn(C(F)F)n3)[C@H](c3ccc(F)cc3Cl)N=C(c3nccs3)N1C2 (stereo partly shown) [Example 37]
Second: CC1OC(=O)N[C@]12CC1=C(c3ccn(C(F)F)n3)[C@H](c3ccc(F)cc3Cl)N=C(c3nccs3)N1C2 (stereo partly shown) [Example 38]
The EC50 of the first is higher: 100 to 400 nM for the first, less than 100 nM for the second. The second is the more potent here.

Going from COC(=O)CCN1C(=O)OC[C@@]12CC1=C(c3ccn(C(F)F)n3)[C@H](c3ccc(F)cc3Cl)N=C(c3nccs3)N1C2 [Example 21] to COC(=O)CCCN1C(=O)OC[C@]12CC1=C(c3ccn(C(F)F)n3)[C@H](c3ccc(F)cc3Cl)N=C(c3nccs3)N1C2 [Example 32], the EC50 falls from greater than 400 nM to less than 100 nM.

O=S1(=O)NC[C@@]2(CC3=C(c4cnn(C(F)F)c4)[C@H](c4ccc(F)cc4Cl)N=C(c4nccs4)N3C2)N1 [Example 10] and O=S1(=O)NC[C@]2(CC3=C(c4cnn(C(F)F)c4)[C@H](c4ccc(F)cc4Cl)N=C(c4nccs4)N3C2)N1 [Example 5] cannot be ordered by EC50: less than 100 nM for the first, less than 100 nM for the second.

First: CCOC(=O)C1=C2C[C@@]3(CNC(=O)N3)CN2C(c2nccs2)=N[C@H]1c1ccc(F)cc1Cl (relative stereo) [Example 13]
Second: CCOC(=O)C1=C2C[C@]3(CNC(=O)N3)CN2C(c2nccs2)=N[C@H]1c1ccc(F)cc1Cl (relative stereo) [Example 14]
The EC50 of the first is higher: greater than 400 nM for the first, less than 100 nM for the second.

CN1C(=O)OC[C@]12CC1=C(c3ccn(C(F)F)n3)[C@H](c3ccc(F)cc3Cl)N=C(c3nccs3)N1C2 [Example 26] and CN1C(=O)OC[C@@]12CC1=C(c3ccn(C(F)F)n3)[C@H](c3ccc(F)cc3Cl)N=C(c3nccs3)N1C2 [Example 19] cannot be ordered by EC50: less than 100 nM for the first, less than 100 nM for the second.

O=C(O)CN1C(=O)OC[C@@]12CC1=C(c3ccn(C(F)F)n3)[C@H](c3ccc(F)cc3Cl)N=C(c3nccs3)N1C2 [Example 24] and O=C(O)CN1C(=O)OC[C@]12CC1=C(c3ccn(C(F)F)n3)[C@H](c3ccc(F)cc3Cl)N=C(c3nccs3)N1C2 [Example 28] cannot be ordered by EC50: greater than 400 nM for the first, greater than 400 nM for the second.

O=C1N[C@]2(CO1)CC1=C(c3ccn(C(F)F)n3)[C@H](c3ccc(F)cc3Cl)N=C(c3nccs3)N1C2 [Example 18] and O=C1N[C@@]2(CO1)CC1=C(c3ccn(C(F)F)n3)[C@H](c3ccc(F)cc3Cl)N=C(c3nccs3)N1C2 [Example 17] cannot be ordered by EC50: less than 100 nM for the first, less than 100 nM for the second.

C/C=C/CN1C(=O)OC[C@]12CC1=C(c3ccn(C(F)F)n3)[C@H](c3ccc(F)cc3Cl)N=C(c3nccs3)N1C2 [Example 36] and C=CCN1C(=O)OC[C@]12CC1=C(c3ccn(C(F)F)n3)[C@H](c3ccc(F)cc3Cl)N=C(c3nccs3)N1C2 [Example 31] cannot be ordered by EC50: greater than 400 nM for the first, greater than 400 nM for the second.

First: O=C1OC[C@]2(CC3=C(c4ccn(C(F)F)n4)[C@H](c4ccc(F)cc4Cl)N=C(c4nccs4)N3C2)N1C[C@@H](O)CO [Example 35]
Second: O=C1OC[C@]2(CC3=C(c4ccn(C(F)F)n4)[C@H](c4ccc(F)cc4Cl)N=C(c4nccs4)N3C2)N1C[C@H](O)CO [Example 34]
The EC50 of the first is lower: 100 to 400 nM for the first, greater than 400 nM for the second.

CCOC(=O)C1=C2C[C@@]3(COC(=O)N3)CN2C(c2nccs2)=N[C@H]1c1ccc(F)cc1Cl (relative stereo) [Example 11] and CCOC(=O)C1=C2C[C@]3(COC(=O)N3)CN2C(c2nccs2)=N[C@H]1c1ccc(F)cc1Cl (relative stereo) [Example 12] cannot be ordered by EC50: less than 100 nM for the first, less than 100 nM for the second.

O=C(O)CCCN1C(=O)OC[C@]12CC1=C(c3ccn(C(F)F)n3)[C@H](c3ccc(F)cc3Cl)N=C(c3nccs3)N1C2 [Example 33] and CCN1C(=O)OC[C@@]12CC1=C(c3ccn(C(F)F)n3)[C@H](c3ccc(F)cc3Cl)N=C(c3nccs3)N1C2 [Example 20] fall in the same range of EC50: 100 to 400 nM for the first, 100 to 400 nM for the second.

O=C1NC[C@@]2(CC3=C(c4cnn(C(F)F)c4)[C@H](c4ccc(F)cc4Cl)N=C(c4nccs4)N3C2)N1 [Example 1] and O=C1NC[C@]2(CC3=C(c4cnn(C(F)F)c4)[C@H](c4ccc(F)cc4Cl)N=C(c4nccs4)N3C2)N1 [Example 2] cannot be ordered by EC50: less than 100 nM for the first, less than 100 nM for the second.

First: C=CCN1C(=O)OC[C@@]12CC1=C(c3ccn(C(F)F)n3)[C@H](c3ccc(F)cc3Cl)N=C(c3nccs3)N1C2 [Example 25]
Second: COC(=O)CN1C(=O)OC[C@]12CC1=C(c3ccn(C(F)F)n3)[C@H](c3ccc(F)cc3Cl)N=C(c3nccs3)N1C2 [Example 27]
The EC50 of the first is lower: 100 to 400 nM for the first, greater than 400 nM for the second.

O=C1NC[C@]2(CC3=C(c4ccn(C(F)F)n4)[C@H](c4ccc(F)cc4Cl)N=C(c4nccs4)N3C2)O1 [Example 41] and O=C1NC[C@@]2(CC3=C(c4ccn(C(F)F)n4)[C@H](c4ccc(F)cc4Cl)N=C(c4nccs4)N3C2)O1 [Example 42] fall in the same range of EC50: 100 to 400 nM for the first, 100 to 400 nM for the second.

CC1OC(=O)N[C@@]12CC1=C(c3ccn(C(F)F)n3)[C@H](c3ccc(F)cc3Cl)N=C(c3nccs3)N1C2 (stereo partly shown) [Example 44] and O=C1N[C@]2(CC3=C(c4ccn(C(F)F)n4)[C@H](c4ccc(F)cc4Cl)N=C(c4nccs4)N3C2)C(CO)O1 (stereo partly shown) [Example 40] cannot be ordered by EC50: less than 100 nM for the first, less than 100 nM for the second.

First: COC(=O)CN1C(=O)OC[C@@]12CC1=C(c3ccn(C(F)F)n3)[C@H](c3ccc(F)cc3Cl)N=C(c3nccs3)N1C2 [Example 23]
Second: C=CCN1C[C@@]2(CC3=C(c4ccn(C(F)F)n4)[C@H](c4ccc(F)cc4Cl)N=C(c4nccs4)N3C2)OC1=O [Example 43]
The EC50 of the first is higher: 100 to 400 nM for the first, less than 100 nM for the second.

O=C1N[C@@]2(CO1)CC1=C(c3cnn(C(F)F)c3)[C@H](c3ccc(F)cc3Cl)N=C(c3nccs3)N1C2 [Example 3] and O=C1N[C@]2(CO1)CC1=C(c3cnn(C(F)F)c3)[C@H](c3ccc(F)cc3Cl)N=C(c3nccs3)N1C2 [Example 4] cannot be ordered by EC50: less than 100 nM for the first, less than 100 nM for the second.

First: Fc1ccc([C@@H]2N=C(c3nccs3)N3CC4(CCCCC4)CC3=C2c2cnn(C(F)F)c2)c(Cl)c1 [Example 9]
Second: CS(=O)(=O)OC1CCCC12CC1=C(c3cnn(C(F)F)c3)[C@H](c3ccc(F)cc3Cl)N=C(c3nccs3)N1C2 (stereo partly shown) [Example 6]
The EC50 of the first is lower: less than 100 nM for the first, 100 to 400 nM for the second. The first is the more potent here.

With COCOCC1OC(=O)N[C@]12CC1=C(c3ccn(C(F)F)n3)[C@H](c3ccc(F)cc3Cl)N=C(c3nccs3)N1C2 (stereo partly shown) [Example 39] the EC50 was 100 to 400 nM.

system: not listed separately; experiment: Compound toxicity, total ATP levels (ATPLite); assay type: cell-based; conditions: human, HepG2 cells, three days after compound addition, 50% reduction of total ATP levels (ATPLite) relative to no drug controls
Description: Compound toxicity is evaluated by seeding cells at 15,000 cells/well and treating with compound as described above.

O=S1(=O)NC[C@@]2(CC3=C(c4cnn(C(F)F)c4)[C@H](c4ccc(F)cc4Cl)N=C(c4nccs4)N3C2)N1 [Example 10] and O=C1NC[C@]2(CC3=C(c4cnn(C(F)F)c4)[C@H](c4ccc(F)cc4Cl)N=C(c4nccs4)N3C2)N1 [Example 2] cannot be ordered by CC50 at 3 days: greater than 25000 nM for the first, greater than 25000 nM for the second.

O=C1N[C@]2(CO1)CC1=C(c3ccn(C(F)F)n3)[C@H](c3ccc(F)cc3Cl)N=C(c3nccs3)N1C2 [Example 18] and O=C1N[C@@]2(CO1)CC1=C(c3ccn(C(F)F)n3)[C@H](c3ccc(F)cc3Cl)N=C(c3nccs3)N1C2 [Example 17] cannot be ordered by CC50 at 3 days: greater than 25000 nM for the first, greater than 25000 nM for the second.

O=C1N[C@@]2(CO1)CC1=C(c3cnn(C(F)F)c3)[C@H](c3ccc(F)cc3Cl)N=C(c3nccs3)N1C2 [Example 3] and CN1C(=O)OC[C@@]12CC1=C(c3ccn(C(F)F)n3)[C@H](c3ccc(F)cc3Cl)N=C(c3nccs3)N1C2 [Example 19] cannot be ordered by CC50 at 3 days: greater than 25000 nM for the first, greater than 25000 nM for the second.

C=CCN1C[C@@]2(CC3=C(c4ccn(C(F)F)n4)[C@H](c4ccc(F)cc4Cl)N=C(c4nccs4)N3C2)OC1=O [Example 43] and CCOC(=O)C1=C2C[C@@]3(CNS(=O)(=O)N3)CN2C(c2nccs2)=N[C@H]1c1ccc(F)cc1Cl (relative stereo) [Example 15] cannot be ordered by CC50 at 3 days: greater than 25000 nM for the first, greater than 25000 nM for the second.
